pEC50: −log10 of the molar value.
Biological target: T1, human ΔF508-CFTR (Homo sapiens, UniProt P13569, DEL508-508)
T1 construct: expressed in transfected cells
Test: CFTR-YFP High Throughput Assay (YFP halide flux in FRT cells)
Format: cell-based
Conditions: FRT cells expressing human ΔF508-CFTR and YFP; forskolin stimulated
Protocol: Assays for Detecting and Measuring the Effect of Compounds on dF508-CFTR Channels CFRT-YFP High Throughput Assay:
The following protocol is designed to selectively screen small molecule compounds for F508del CFTR corrector activities in the HTS YFP flux assay. In this protocol, the cells are incubated with testing compounds for 24 hours, washed with PBS, stimulated with forskolin and a standard potentiator, and read on a 384-well HTS plate reader, such as the Hamamatsu FDDD-6000.
(§1) YFP fluorescence intensity is acquired at high speed before and after iodide buffer is injected to the assay cells. Iodide enters the cells via active CFTR channels in the plasma membrane, and quenches the YFP fluorescence. The rate of fluorescence quenching is proportionally related to the total CFTR activities in the cell membrane. dF508-CFTR corrector accelerates YFP quenching by increasing the number of CFTR molecules in the testing cell plasma membrane.
This method was initially developed for bench top plate readers (Galietta et al., 2001), and was adapted to the HTS format (Sui et al. Assay Drug Dev. Technol. 2010).
Fisher Rat Thyroid (FRT) cells stably expressing both human AF508-CFTR and a halide-sensitive yellow fluorescent protein (YFP—H148Q/1152L 25, 22) (Galietta et al., Am. J. Physiol Cell Physiol 281(5), C1734, 2001) were cultured on plastic surface in Coon's modified Ham's F12 medium supplemented with FBS 10%, L-glutamine 2 mM, penicillin 100 U/mL, and streptomycin 100 μg/mL. G418 (0.75-1.0 mg/mL) and zeocin (3.2 ug/mL) were used for selection of FRT cells expressing ΔF508-CFTR and YFP. For primary screening, FRT cells were plated into 384-well black wall, transparent bottom microtiter plates (Costar; Corning Inc.) at a cell density of 20,000-40,000 per well. Test compound was applied to the cells at varying concentrations ranging from […] in either a 2-fold or 3-fold dilution series. Cells were incubated in a cell culture incubator at 37° C. with 5% CO2 for 24-26 h. Assay plates were washed with DPBS media (Thermo, cat# SH30028.02) to remove unbound cells and compound. Stimulation media (25 μL) containing 20 μM Forskolin & 30 μM P3 [6-(Ethyl-phenyl-sulfonyl)-4-oxo-1,4-dihydro-quinoline-3-carboxylic acid 2-methoxy-benzylamide] in Hams F-12 coon's modified media was added to the plate wells and incubated at room temperature for 60-120 min. 25 μL of HEPES-PBS-I buffer (10 mM HEPES, 1 mM MgCl2, 3 mM KCl, 1 mM CaCl2, 150 mM NaI) was then added and fluorescence quench curves (Excitation 500 nm/Emission 540 nm; exposure 136 ms) were immediately recorded on an FDSS-6000 plate reader (Hamamatsu). Quench rates were derived from least squares fitting of the data as described by Sui et al., (2010).
The following protocol is designed to selectively screen small molecule compounds for F508del CFTR potentiator activities in the HTS YFP flux assay. In this protocol, the cells are incubated at 27 C for 24 hours with homogeneously boosted dF508-CFTR expression in the cell membrane by the low temperature, washed with PBS, stimulated with forskolin, and read on a 384-well HTS plate reader, such as the Hamamatsu FDDD-6000.
as §1, with “dF508del-CFTR potentiators accelerate” for “dF508-CFTR corrector accelerates”, “increasing” for “increasing the number of”, “activities” for “molecules”
Fisher Rat Thyroid (FRT) cells stably expressing both human ΔF508-CFTR and a halide-sensitive yellow fluorescent protein (YFP-H148Q/I152L 25, 22) (Galietta et al., Am. J. Physiol Cell Physiol 281(5), C1734, 2001) were cultured on plastic surface in Coon's modified Ham's F12 medium supplemented with FBS 10%, L-glutamine 2 mM, penicillin 100 U/mL, and streptomycin 100 μg/mL. […]

T1 sequence (P13569 with tags, fused parts or gaps DEL508-508): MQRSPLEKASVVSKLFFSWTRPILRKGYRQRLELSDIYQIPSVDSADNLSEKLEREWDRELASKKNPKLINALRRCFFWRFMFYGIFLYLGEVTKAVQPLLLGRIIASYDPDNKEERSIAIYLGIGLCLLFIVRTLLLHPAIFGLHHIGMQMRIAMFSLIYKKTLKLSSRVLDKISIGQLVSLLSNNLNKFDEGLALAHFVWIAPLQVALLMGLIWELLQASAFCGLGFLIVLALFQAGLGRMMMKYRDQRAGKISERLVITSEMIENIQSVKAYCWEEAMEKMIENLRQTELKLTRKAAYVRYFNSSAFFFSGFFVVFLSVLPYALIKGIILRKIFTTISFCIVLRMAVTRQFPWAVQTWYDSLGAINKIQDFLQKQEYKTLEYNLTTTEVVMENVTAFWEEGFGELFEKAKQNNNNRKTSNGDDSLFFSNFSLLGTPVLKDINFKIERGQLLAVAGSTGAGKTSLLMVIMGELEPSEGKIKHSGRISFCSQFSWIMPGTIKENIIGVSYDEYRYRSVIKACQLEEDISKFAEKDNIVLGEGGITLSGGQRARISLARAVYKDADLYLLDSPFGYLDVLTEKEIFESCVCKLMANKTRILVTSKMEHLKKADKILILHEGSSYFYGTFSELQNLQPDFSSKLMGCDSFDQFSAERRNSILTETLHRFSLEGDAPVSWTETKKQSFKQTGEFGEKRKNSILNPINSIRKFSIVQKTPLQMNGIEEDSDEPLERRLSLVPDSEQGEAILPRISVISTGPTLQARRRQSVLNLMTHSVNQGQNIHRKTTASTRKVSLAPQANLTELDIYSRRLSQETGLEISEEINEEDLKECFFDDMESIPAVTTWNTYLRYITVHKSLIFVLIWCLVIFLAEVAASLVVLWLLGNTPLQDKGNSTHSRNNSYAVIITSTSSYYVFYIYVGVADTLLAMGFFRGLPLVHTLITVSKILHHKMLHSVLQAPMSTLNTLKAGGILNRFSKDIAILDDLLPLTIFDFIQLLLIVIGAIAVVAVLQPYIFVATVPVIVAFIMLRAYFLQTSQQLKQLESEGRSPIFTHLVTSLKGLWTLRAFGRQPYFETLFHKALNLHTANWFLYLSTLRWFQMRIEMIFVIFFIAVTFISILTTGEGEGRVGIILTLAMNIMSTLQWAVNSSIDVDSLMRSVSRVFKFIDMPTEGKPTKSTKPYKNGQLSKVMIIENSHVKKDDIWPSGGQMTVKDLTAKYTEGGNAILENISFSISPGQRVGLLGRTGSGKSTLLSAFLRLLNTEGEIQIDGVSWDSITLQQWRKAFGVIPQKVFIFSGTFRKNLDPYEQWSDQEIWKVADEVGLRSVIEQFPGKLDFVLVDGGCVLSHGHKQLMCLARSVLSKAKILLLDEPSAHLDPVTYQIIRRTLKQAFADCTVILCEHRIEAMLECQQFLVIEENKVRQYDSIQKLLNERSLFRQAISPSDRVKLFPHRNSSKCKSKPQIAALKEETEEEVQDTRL

Compound	pEC50
CCN(C(=O)Cn1nc(Cc2cccnc2)c2c(OC3CCCCC3)cccc2c1=O)c1ccc2c(c1)OC(F)(F)O2 [Example 60, 2-(5-(cyclohexyloxy)-1-oxo-4-(pyridin-3-ylmethyl)phthalazin-2(1H)-yl)-N-(2,2-difluorobenzo[d][1,3]dioxol-5-yl)-N-ethylacetamide]	> 5.00
CCN(C(=O)Cn1nc(Cc2cccnc2)c2cccc(OCCOC)c2c1=O)c1ccc2c(c1)OC(F)(F)O2 [Example 61, N-(2,2-difluorobenzo[d][1,3]dioxol-5-yl)-N-ethyl-2-(8-(2-methoxyethoxy)-1-oxo-4-(pyridin-3-ylmethyl)phthalazin-2(1H)-yl)acetamide]	> 5.00
CCN(C(=O)Cn1nc(Cc2cccnc2)c2c(OCCOC)cccc2c1=O)c1ccc2c(c1)OC(F)(F)O2 [Example 62, N-(2,2-difluorobenzo[d][1,3]dioxol-5-yl)-N-ethyl-2-(5-(2-methoxyethoxy)-1-oxo-4-(pyridin-3-ylmethyl)phthalazin-2(1H)-yl)acetamide]	> 5.00
CCN(C(=O)Cn1nc(-c2ccc(S(N)(=O)=O)cc2)c2ccc(OC)cc2c1=O)c1ccc(OC(F)F)cc1 [Example 66, N-(4-(difluoromethoxy)phenyl)-N-ethyl-2-(7-methoxy-1-oxo-4-(4-sulfamoylphenyl)phthalazin-2(1H)-yl)acetamide]	< 4.70
CCN(C(=O)Cn1nc(-c2cccc(C#N)c2)c2ccc(OC)cc2c1=O)c1ccc(OC(F)F)cc1 [Example 67, 2-(4-(3-cyanophenyl)-7-methoxy-1-oxophthalazin-2(1H)-yl)-N-(4-(difluoromethoxy)phenyl)-N-ethylacetamide]	> 5.00
CCN(C(=O)Cn1nc(-c2ccc(C(N)=O)cc2)c2ccc(OC)cc2c1=O)c1ccc2nc(C)oc2c1 [Example 77, 4-(3-(2-(ethyl(2-methylbenzo[d]oxazol-6-yl)amino)-2-oxoethyl)-6-methoxy-4-oxo-3,4-dihydrophthalazin-1-yl)benzamide]	> 5.00
CCN(C(=O)Cn1nc(C(=O)Nc2ccccc2C#N)c2ccccc2c1=O)c1ccc2c(c1)OC(F)(F)O2 [Example 78, N-(2-cyanophenyl)-3-(2-((2,2-difluorobenzo[d][1,3]dioxol-5-yl)(ethyl)amino)-2-oxoethyl)-4-oxo-3,4-dihydrophthalazine-1-carboxamide]	4.70 to 5.00
CCN(C(=O)Cn1nc(C(=O)Nc2cc(Cl)ccc2C(=O)O)c2ccccc2c1=O)c1ccc2c(c1)OC(F)(F)O2 [Example 79, 4-chloro-2-(3-(2-((2,2-difluorobenzo[d][1,3]dioxol-5-yl)(ethyl)amino)-2-oxoethyl)-4-oxo-3,4-dihydrophthalazine-1-carboxamido)benzoic acid]	> 5.00
CCN(C(=O)Cn1nc(C(=O)Nc2ccccn2)c2ccccc2c1=O)c1ccc2c(c1)OC(F)(F)O2 [Example 80, 3-(2-((2,2-difluorobenzo[d][1,3]dioxol-5-yl)(ethyl)amino)-2-oxoethyl)-4-oxo-N-(pyridin-2-yl)-3,4-dihydrophthalazine-1-carboxamide]	< 4.70
CCN(C(=O)Cn1nc(C(=O)N(C)c2ccccn2)c2ccccc2c1=O)c1ccc2c(c1)OC(F)(F)O2 [Example 81, 3-(2-((2,2-difluorobenzo[d][1,3]dioxol-5-yl)(ethyl)amino)-2-oxoethyl)-N-methyl-4-oxo-N-(pyridin-2-yl)-3,4-dihydrophthalazine-1-carboxamide]	4.70 to 5.00
CCc1ccc(N(CC)C(=O)Cn2nc(C(=O)Nc3cc(Cl)ccc3C#N)c3ccccc3c2=O)cc1 [Example 82, N-(5-chloro-2-cyanophenyl)-3-(2-(ethyl(4-ethylphenyl)amino)-2-oxoethyl)-4-oxo-3,4-dihydrophthalazine-1-carboxamide]	> 5.00
CCN(C(=O)Cn1nc(C(=O)N(CC)c2ccccc2C#N)c2ccccc2c1=O)c1ccc2c(c1)OC(F)(F)O2 [Example 83, N-(2-cyanophenyl)-3-(2-((2,2-difluoro-benzo[d][1,3]dioxol-5-yl)(ethyl)amino)-2-oxoethyl)-N-ethyl-4-oxo-3,4-dihydro-phthalazine-1-carboxamide]	> 5.00
CCc1ccc(N(CC)C(=O)Cn2nc(C(=O)Nc3cc(Cl)ccc3C(=O)OC)c3ccccc3c2=O)cc1 [Example 84, methyl 4-chloro-2-(3-(2-(ethyl(4-ethylphenyl)amino)-2-oxoethyl)-4-oxo-3,4-dihydrophthalazine-1-carboxamido)benzoate]	> 5.00

Other lines, results leading:

pEC50	Compound
> 5.00	COc1ccc2c(-c3cccc(C#N)c3)nn(CC(=O)N(C)c3ccc4c(c3)OC(F)(F)O4)c(=O)c2c1 [Example 63, 2-(4-(3-cyanophenyl)-7-methoxy-1-oxophthalazin-2(1H)-yl)-N-(2,2-difluorobenzo[d][1,3]dioxol-5-yl)-N-methylacetamide]
> 5.00	COc1ccc2c(-c3ccc(S(N)(=O)=O)cc3)nn(CC(=O)N(C)c3ccc4c(c3)OC(F)(F)O4)c(=O)c2c1 [Example 64, N-(2,2-difluorobenzo[d][1,3]dioxol-5-yl)-2-(7-methoxy-1-oxo-4-(4-sulfamoylphenyl)phthalazin-2(1H)-yl)-N-methylacetamide]
> 5.00	CCN(C(=O)Cn1nc(-c2ccc(S(N)(=O)=O)cc2)c2ccc(OC)cc2c1=O)c1ccc2c(c1)OC(F)(F)O2 [Example 65, N-(2,2-difluorobenzo[d][1,3]dioxol-5-yl)-N-ethyl-2-(7-methoxy-1-oxo-4-(4-sulfamoylphenyl)phthalazin-2(1H)-yl)acetamide]
> 5.00	COc1ccc2c(-c3ccc(S(N)(=O)=O)cc3)nn(CC(=O)N(c3ccc4c(c3)OC(F)(F)O4)C(C)C)c(=O)c2c1 [Example 69, N-(2,2-difluorobenzo[d][1,3]dioxol-5-yl)-N-isopropyl-2-(7-methoxy-1-oxo-4-(4-sulfamoyl-phenyl)phthalazin-2(1H)-yl)acetamide]
> 5.00	COc1ccc2c(-c3cccc(C#N)c3)nn(CC(=O)N(c3ccc4c(c3)OC(F)(F)O4)C(C)C)c(=O)c2c1 [Example 70, 2-(4-(3-cyanophenyl)-7-methoxy-1-oxophthalazin-2(1H)-yl)-N-(2,2-difluorobenzo[d][1,3]dioxol-5-yl)-N-isopropylacetamide]
> 5.00	COc1ccc2c(-c3ccc(S(N)(=O)=O)cc3)nn(CC(=O)N(c3ccc4c(c3)OC(F)(F)O4)C3CC3)c(=O)c2c1 [Example 71, N-cyclopropyl-N-(2,2-difluorobenzo[d][1,3]dioxol-5-yl)-2-(7-methoxy-1-oxo-4-(4-sulfamoylphenyl)phthalazin-2(1H)-yl)acetamide]
> 5.00	COc1ccc2c(-c3cccc(C#N)c3)nn(CC(=O)N(c3ccc4c(c3)OC(F)(F)O4)C3CC3)c(=O)c2c1 [Example 72, 2-(4-(3-cyanophenyl)-7-methoxy-1-oxophthalazin-2(1H)-yl)-N-cyclopropyl-N-(2,2-difluorobenzo[d][1,3]dioxol-5-yl)acetamide]
> 5.00	CCN(C(=O)Cn1nc(-c2ccc(C(N)=O)cc2)c2ccc(OC)cc2c1=O)c1ccc2c(c1)OC(F)(F)O2 [Example 75, 4-(3-(2-((2,2-difluorobenzo[d][1,3]dioxol-5-yl)(ethyl)amino)-2-oxoethyl)-6-methoxy-4-oxo-3,4-dihydrophthalazin-1-yl)benzamide]
> 5.00	COc1ccc2c(-c3ccc(C(N)=O)cc3)nn(CC(=O)N(C)c3ccc4c(c3)OC(F)(F)O4)c(=O)c2c1 [Example 76, 4-(3-(2-((2,2-difluorobenzo[d][1,3]dioxol-5-yl)(methyl)amino)-2-oxoethyl)-6-methoxy-4-oxo-3,4-dihydrophthalazin-1-yl)benzamide]

Reference: patent US9790215B2 (FLATLEY DISCOVERY LAB, LLC, priority 2013, dated 2017)
